Source: US7709643B2, “Synthesis of sodium narcistatin and related compounds” (Arizona Board of Regents, a body corporate of the State of …, priority 2005, dated 2010)
≈ marks a conversion by molar mass, not a printed value.

Tests used:
[1] = Aqueous solubility at 25° C.; assay type: physicochemical
BXPC-3 = assay: Human cancer cell line minipanel, Pancreas-a BXPC-3; assay type: cell-based
Description: (§1) The cyclic phosphate prodrugs, along with the parent compounds were evaluated against a minipanel of human cancer cell lines and murine P388 lymphocytic leukemia.

MCF-7 = assay: Human cancer cell line minipanel, Breast MCF-7; assay type: cell-based
Description: as §1

SF268 = assay: Human cancer cell line minipanel, CNS SF268; assay type: cell-based
Description: as §1

NCI-H460 = assay: Human cancer cell line minipanel, Lung-NSC NCI-H460; assay type: cell-based
Description: as §1

KM20L2 = assay: Human cancer cell line minipanel, Colon KM20L2; assay type: cell-based
Description: as §1

DU-145 = assay: Human cancer cell line minipanel, Prostate DU-145; assay type: cell-based
Description: as §1

[2] = tested on: minipanel of human cancer cell lines and murine P388 lymphocytic leukemia; assay: Minipanel of human cancer cell lines and murine P388 lymphocytic leukemia (summary in words); assay type: cell-based; conditions: summary of the cancer cell line evaluations of Table 2
Description: as §1
The corresponding 3,5-cyclic phosphates were less inhibitory under the experimental conditions employed. However, cleavage of the phosphate groups is expected to be very effective in vivo and such anticancer evaluations are now underway as part of the further preclinical development of these new anticancer drug candidates. (Pettit, G. R., et al., J. Nat. Prod. 2003, 66, 92-96.), (Dowlati, A., et al., Cancer Research 2002, 62, 3408-3416.), (Dziba, J. M., et al., Thyroid 2002, 12, 1063-1070.), (Eikesdal, H. P., et al., Cancer Lett. 2002, 178, 209-217.), (Prise, V., et al., Int. J. Oncology 2002, 21, 717-726.), (Hill, S. A., et al., Int. J. Cancer 2002, 102, 70-74.)

[3] = tested on: NCI panel of cancer cell lines; conditions: J. Nat. Prod. 56:1682-1687, 1993; cited from earlier work
RNA viruses = conditions: J. Nat. Prod. 55:1569-1581; 1992; cited from earlier work

O=C1N[C@H]2[C@H](O)[C@H](O)[C@@H](O)C[C@@H]2c2cc3c(c(O)c21)OCO3 (relative stereo) [1a, trans-dihydronarciclasine]
Aqueous Solubility 25° C. [1]: <1000 µg/mL
GI50 Pancreas-a BXPC-3 (BXPC-3): 0.012 µg/mL (≈ 0.0388 µM)
GI50 Breast MCF-7 (MCF-7): 0.0053 µg/mL (≈ 0.0171 µM)
GI50 CNS SF268 (SF268): 0.020 µg/mL (≈ 0.0647 µM)
GI50 Lung-NSC NCI-H460 (NCI-H460): 0.0092 µg/mL (≈ 0.0297 µM)
GI50 Colon KM20L2 (KM20L2): 0.015 µg/mL (≈ 0.0485 µM)
GI50 Prostate DU-145 (DU-145): 0.0066 µg/mL (≈ 0.0213 µM)
cancer cell growth inhibitory activity (in words) [2]: strong cancer cell growth inhibitory activity
GI50 [3]: 12.6 nM
activity against a range of RNA viruses (RNA viruses): strong activity

O=C1N[C@H]2[C@H](O)[C@H](O)[C@@H](O)C[C@@H]2c2cc3c(cc21)OCO3 (relative stereo) [1c, 7-deoxy-trans-dihydronarciclasine]
Aqueous Solubility 25° C. [1]: <1000 µg/mL
GI50 Pancreas-a BXPC-3 (BXPC-3): 0.046 µg/mL (≈ 0.157 µM)
GI50 Breast MCF-7 (MCF-7): 0.034 µg/mL (≈ 0.116 µM)
GI50 CNS SF268 (SF268): 0.059 µg/mL (≈ 0.201 µM)
GI50 Lung-NSC NCI-H460 (NCI-H460): 0.043 µg/mL (≈ 0.147 µM)
GI50 Colon KM20L2 (KM20L2): 0.051 µg/mL (≈ 0.174 µM)
GI50 Prostate DU-145 (DU-145): 0.040 µg/mL (≈ 0.136 µM)
cancer cell growth inhibitory activity (in words) [2]: strong cancer cell growth inhibitory activity

O=C1N[C@H]2[C@@H]3OP(=O)([O-])O[C@@H]3[C@@H](O)C[C@@H]2c2cc3c(cc21)OCO3.[Li+] (relative stereo) [11a, Lithium 7-deoxy-trans-dihydro-narcistatin]
GI50 Pancreas-a BXPC-3 (BXPC-3): >1 µg/mL
GI50 Breast MCF-7 (MCF-7): >1 µg/mL
GI50 CNS SF268 (SF268): >1 µg/mL
GI50 Lung-NSC NCI-H460 (NCI-H460): >1 µg/mL
GI50 Colon KM20L2 (KM20L2): >1 µg/mL
GI50 Prostate DU-145 (DU-145): >1 µg/mL

O=C1N[C@H]2[C@@H]3OP(=O)([O-])O[C@@H]3[C@@H](O)C[C@@H]2c2cc3c(cc21)OCO3.[K+] (relative stereo) [11b, Potassium 7-deoxy-trans-dihydro-narcistatin]
GI50 Pancreas-a BXPC-3 (BXPC-3): >1 µg/mL
GI50 Breast MCF-7 (MCF-7): >1 µg/mL
GI50 CNS SF268 (SF268): >1 µg/mL
GI50 Lung-NSC NCI-H460 (NCI-H460): >1 µg/mL
GI50 Colon KM20L2 (KM20L2): >1 µg/mL
GI50 Prostate DU-145 (DU-145): >1 µg/mL

O=C1N[C@H]2[C@@H]3OP(=O)([O-])O[C@@H]3[C@@H](O)C[C@@H]2c2cc3c(c(O)c21)OCO3.[Li+] (relative stereo) [12a, Lithium trans-dihydro-narcistatin]
GI50 Pancreas-a BXPC-3 (BXPC-3): >1 µg/mL
GI50 Breast MCF-7 (MCF-7): >1 µg/mL
GI50 CNS SF268 (SF268): >1 µg/mL
GI50 Lung-NSC NCI-H460 (NCI-H460): >1 µg/mL
GI50 Colon KM20L2 (KM20L2): >1 µg/mL
GI50 Prostate DU-145 (DU-145): >1 µg/mL

O=C1N[C@H]2[C@@H]3OP(=O)([O-])O[C@@H]3[C@@H](O)C[C@@H]2c2cc3c(c(O)c21)OCO3.[K+] (relative stereo) [12b, Potassium trans-dihydro-narcistatin]
GI50 Pancreas-a BXPC-3 (BXPC-3): >1 µg/mL
GI50 Breast MCF-7 (MCF-7): 0.64 µg/mL
GI50 CNS SF268 (SF268): >1 µg/mL
GI50 Lung-NSC NCI-H460 (NCI-H460): >1 µg/mL
GI50 Colon KM20L2 (KM20L2): >1 µg/mL
GI50 Prostate DU-145 (DU-145): 0.54 µg/mL

O=C1N[C@H]2[C@@H]3OP(=O)([O-])O[C@@H]3[C@@H](O)C[C@@H]2c2cc3c(cc21)OCO3.[Na+] (relative stereo) [compound 11, Sodium 7-Deoxy-trans-dihydro-narcistatin]
GI50 Pancreas-a BXPC-3 (BXPC-3): >10 µg/mL
GI50 Breast MCF-7 (MCF-7): 7.2 µg/mL
GI50 CNS SF268 (SF268): >10 µg/mL
GI50 Lung-NSC NCI-H460 (NCI-H460): >10 µg/mL
GI50 Colon KM20L2 (KM20L2): >10 µg/mL
GI50 Prostate DU-145 (DU-145): >10 µg/mL

O=C1N[C@H]2[C@@H]3OP(=O)([O-])O[C@@H]3[C@@H](O)C[C@@H]2c2cc3c(c(O)c21)OCO3.[Na+] (relative stereo) [compound 12, Sodium trans-dihydro-narcistatin]
GI50 Pancreas-a BXPC-3 (BXPC-3): 5.6 µg/mL
GI50 Breast MCF-7 (MCF-7): 4.6 µg/mL
GI50 CNS SF268 (SF268): 8.8 µg/mL
GI50 Lung-NSC NCI-H460 (NCI-H460): 7.8 µg/mL
GI50 Colon KM20L2 (KM20L2): 9.6 µg/mL
GI50 Prostate DU-145 (DU-145): 5.2 µg/mL

O=C1N[C@@H]2C(=C[C@H](O)[C@@H](O)[C@H]2O)c2cc3c(cc21)OCO3 [2c, 7-deoxynarciclasine, reference compound]
Aqueous Solubility 25° C. [1]: <1000 µg/mL
GI50 Pancreas-a BXPC-3 (BXPC-3): 0.070 µg/mL (≈ 0.24 µM)
GI50 Breast MCF-7 (MCF-7): 0.046 µg/mL (≈ 0.158 µM)
GI50 CNS SF268 (SF268): 0.120 µg/mL (≈ 0.412 µM)
GI50 Lung-NSC NCI-H460 (NCI-H460): 0.053 µg/mL (≈ 0.182 µM)
GI50 Colon KM20L2 (KM20L2): 0.084 µg/mL (≈ 0.288 µM)
GI50 Prostate DU-145 (DU-145): 0.051 µg/mL (≈ 0.175 µM)

O=C1NC2C(CC(O)C(O)C2O)c2cc3c(c(O)c21)OCO3 (stereo not drawn) [3a, cis-dihydronarciclasine, reference compound]
GI50 [3]: 3800 nM
activity against a range of RNA viruses (RNA viruses): completely inactive

O=C1N[C@@H]2C(=C[C@H](O)[C@H]3OP(=O)([O-])O[C@H]32)c2cc3c(cc21)OCO3.[Li+] [10a, Lithium 7-Deoxy-narcistatin]
GI50 Pancreas-a BXPC-3 (BXPC-3): >1 µg/mL
GI50 Breast MCF-7 (MCF-7): >1 µg/mL
GI50 CNS SF268 (SF268): >1 µg/mL
GI50 Lung-NSC NCI-H460 (NCI-H460): >1 µg/mL
GI50 Colon KM20L2 (KM20L2): >1 µg/mL
GI50 Prostate DU-145 (DU-145): >1 µg/mL

O=C1N[C@@H]2C(=C[C@H](O)[C@H]3OP(=O)([O-])O[C@H]32)c2cc3c(cc21)OCO3.[K+] [10b, Potassium 7-Deoxy-narcistatin]
GI50 Pancreas-a BXPC-3 (BXPC-3): >1 µg/mL
GI50 Breast MCF-7 (MCF-7): >1 µg/mL
GI50 CNS SF268 (SF268): >1 µg/mL
GI50 Lung-NSC NCI-H460 (NCI-H460): >1 µg/mL
GI50 Colon KM20L2 (KM20L2): >1 µg/mL
GI50 Prostate DU-145 (DU-145): >1 µg/mL

O=C1N[C@@H]2C(=C[C@H](O)[C@H]3OP(=O)([O-])O[C@H]32)c2cc3c(cc21)OCO3.[Na+] [compound 10, Sodium 7-Deoxy-narcistatin]
GI50 Pancreas-a BXPC-3 (BXPC-3): 5.3 µg/mL
GI50 Breast MCF-7 (MCF-7): 4.0 µg/mL
GI50 CNS SF268 (SF268): 6.3 µg/mL
GI50 Lung-NSC NCI-H460 (NCI-H460): 4.7 µg/mL
GI50 Colon KM20L2 (KM20L2): 5.6 µg/mL
GI50 Prostate DU-145 (DU-145): 3.9 µg/mL
